# Results: US20250382588A1, “CHIMERIC AAV AND USES THEREOF” (priority 2023, published 2025)
# Legend:
# [1] = system: retrogradely labeled D1-MSNs; experiment: Striatal slice whole-cell recordings of retrogradely labeled MSNs; type: cell-based, mice; details: AAV8R12-G88P3-HA-hM3Dq-2A-EYFP; CNO 10 μM
# Source text: Mice from different groups were anesthetized with […] isoflurane, and then decapitated. The brain was quickly extracted and placed in ice-cold N-methyl-D-glucamine (NMDG) cutting solution containing (in mM): 92 NMDG, 2.5 KCl, 25 NaHCO3, 1.25 NaH2PO4, 4.5 D-Glucose, 20 HEPES, 5 L-ascorbic acid, 3 Na-pyruvate, 2 Thiourea, 10 MgSO4, 0.5 CaCl2). The pH was adjusted to 7.2±0.1 using HCl and the osmolarity was adjusted to 305±5 mosmol/L using NMDG. The solution was bubbled with 95% O2/5% CO2 prior to use. Coronal striatum slices were cut in 250-[…] thickness with a vibratome slicer (Leica, VT1200 S), and then incubated in artificial cerebrospinal fluid (aCSF) saturated with 95% O2/5% CO2 for at least 45 min at 37° C. before recording. The aCSF contains (in mM) 125 NaCl, 1.25 KCl, 25 NaHCO3, 1.25 KH2PO4, 25 D-Glucose, 2 CaCl2) and 1 MgCl2, supplemented with 2 mM Na-pyruvate, 3 mM Myo-inositol and 0.4 mM L-ascorbic acid.
# The acute striatum slice was transferred to the recording chamber with a constant perfusion of oxygenized aCSF at the rate of 3 ml/min. Neurons were visualized using an upright microscope (Olympus, BX-51) with a 40× water immersion objective at room temperature (˜25° C.). […] Neurons were quickly visualized under fluorescence microscope and then patch clamp were achieved under infrared light illumination and CCD camera. […]
# hM3Dq or rM3Ds = experiment: Locomotion test after nigral DREADD AAV and CNO in macaques; type: in vivo
# Procedure: To guide the virus injection in SNr, a guide grid of multiple holes spaced by 1 mm was installed on each subject vertically above the SN. By filling vitamin E in these holes, the accurate coordinates for injection could be obtained from the T1-weighted MRI images (3T Tim Trio scanner, Siemens). Virus injections were performed in nine sites covering the whole SNr, and a total volume of 27 μL virus was unilaterally injected in the right SNr at the speed of 300 nL/min.
# To intracranially administrate drug and/or perform electrophysiological recording, a recording chamber covering from anterior caudate to posterior GPi was fixed on the skull with 6 titanium screws and dental cement. Each subject was allowed to recover from the surgery for at least 6 weeks prior to further studies.
# (§1) The locomotion tests for monkeys were conducted in a custom-made observation cage (100 cm×100 cm×100 cm). The top and front of the cage were made of toughened glass in order to gain a clear view for behavioral recording. Monkeys were habituated to the observation cage by placing them inside for 30 minutes on three separate days.
# (§2) For monkeys injected with AAV8R12-G88P3-HA-hM3Dq, CNO was intracranially infused into the dorsomedial caudate through the recording chamber. To infuse while the animal was awake, the monkey was trained to sit in a primate chair specially designed with its head fixed to the primate chair by a mask made of thermoplastic materials. Injections were conducted through a 33-Gauge needle connected to a 250 μL syringe via a polyethylene pipe (Hamilton, Neuros). […] The needle was held for 5 minutes for drug diffusion before retraction. […] Videos capturing the subjects' behavior were recorded for at least 90 minutes. Animal behaviors from 30-90 minutes after saline/CNO infusion were further analyzed and quantified.
# (§3) For rotation analysis, only movements that occurred lower than 30 cm on the z-axis were counted. To determine the direction of the rotation, we first computed the center for the rotation data in the x-y plane as (x0, y0) by averaging all data points, and then we computed the angle relative to (x0, y0) for each time point by the following formula:
# (§4) where θi represents the rotating angle at time i, and (xi, yi) represents the x-y coordinate at time i. We then calculated the change of rotating angle as Δθi=θi−θi-1. For right nigral injections, when Δθ<0, the direction of the rotation was anticlockwise and was labeled as a contraversive rotation. When Δθ>0, the direction of the rotation was clockwise and was labeled as an ipsiversive rotation. The raw data were analyzed and plotted through a custom R package. Code is available on Github (github.com/chenyef/PD_ana/blob/main/Behavior_ana.txt).
# [2] = Locomotion test in naive macaques after CNO; type: in vivo
# Procedure: as §1, §2, §3, §4
# [3] = intracranial or systemic CNO, n=4
structure (smiles),measurement,setting,value
"C[N+]1([O-])CCN(C2=Nc3cc(Cl)ccc3Nc3ccccc32)CC1 [CNO, clozapine N-oxide]",excitability of transduced MSNs,[1],augmentation of excitability
same,muscle tone of the contralateral biceps brachii (electromyogram),hM3Dq or rM3Ds; following CNO infusions,an increase in the muscle tone
same,immobile time (FIG. 10E),hM3Dq or rM3Ds; [3],89.13±8.379
same,speed during contraversive rotations (FIG. 10G),hM3Dq or rM3Ds; [3],46.98±6.669
same,total distance (FIG. 10F),hM3Dq or rM3Ds; [3],97.37±19.41
same,velocity of ipsiversive rotations (FIG. 10H),hM3Dq or rM3Ds; [3],41.37±6.566
same,immobile time (FIG. 11E),"[2]; naive macaques, n=3",149.8±22.65
same,percentage of contraversive and ipsiversive rotation (FIG. 11C),"[2]; naive macaques, n=3",0.8384±0.4152
same,speed of contraversive rotations (FIG. 11G),"[2]; naive macaques, n=3",39.63±7.092
same,speed of ipsiversive rotations (FIG. 11H),"[2]; naive macaques, n=3",42.79±4.705
same,time spending in the higher portion of the observing cages (FIG. 11D),"[2]; naive macaques, n=3",60.43±4.542
same,total distance (FIG. 11F),"[2]; naive macaques, n=3",59.48±18.65
same,"behavioral changes in naïve monkeys, in words",[2]; no viral injections,did not induce significant behavioral changes
